Experiment: xn = mol fraction of the nth substance listed
Settings: 101 kPa, Liquid; for viscosity: Anton Paar Stabinger viscometer

Cc1cc(C)cc(C)c1 [1,3,5-trimethylbenzene] + COc1ccccc1
Settings | mass density [kg/m3] | speed of sound [m/s] | viscosity [mPa·s]
288.15 K, x2 = 0 | 869.169 | 1377.5 | 0.754
288.15 K, x2 = 0.074 | 876.661 | 1383.1 | 0.769
288.15 K, x2 = 0.181 | 887.986 | 1390.7 | 0.802
288.15 K, x2 = 0.334 | 905.232 | 1400.3 | 0.849
288.15 K, x2 = 0.4982 | 925.26 | 1408 | 0.893
288.15 K, x2 = 0.628 | 942.318 | 1420.3 | 0.965
288.15 K, x2 = 0.7512 | 959.611 | 1426.3 | 1.005
288.15 K, x2 = 0.814 | 968.893 | 1433.8 | 1.061
288.15 K, x2 = 0.875 | 978.238 | 1438.6 | 1.101
288.15 K, x2 = 0.94 | 988.554 | 1445.6 | 1.158
293.15 K, x2 = 0 | 865.072 | 1357 | 0.705
293.15 K, x2 = 0.074 | 872.553 | 1361.7 | 0.716
293.15 K, x2 = 0.181 | 883.818 | 1368.1 | 0.743
293.15 K, x2 = 0.334 | 900.968 | 1376.2 | 0.782
293.15 K, x2 = 0.4982 | 920.888 | 1383.3 | 0.819
293.15 K, x2 = 0.628 | 937.858 | 1395.1 | 0.883
293.15 K, x2 = 0.7512 | 955.065 | 1401.5 | 0.92
293.15 K, x2 = 0.814 | 964.301 | 1410 | 0.971
293.15 K, x2 = 0.875 | 973.59 | 1415.8 | 1.007
293.15 K, x2 = 0.94 | 983.844 | 1424.2 | 1.058
298.15 K, x2 = 0 | 861.062 | 1336.9 | 0.661
298.15 K, x2 = 0.074 | 868.529 | 1342.6 | 0.674
298.15 K, x2 = 0.181 | 879.758 | 1350.1 | 0.697
298.15 K, x2 = 0.334 | 896.835 | 1360 | 0.733
298.15 K, x2 = 0.4982 | 916.671 | 1370.5 | 0.767
298.15 K, x2 = 0.628 | 933.575 | 1379.4 | 0.827
298.15 K, x2 = 0.7512 | 950.712 | 1388.1 | 0.863
298.15 K, x2 = 0.814 | 959.91 | 1392.9 | 0.912
298.15 K, x2 = 0.875 | 969.162 | 1397.6 | 0.946
298.15 K, x2 = 0.94 | 979.363 | 1402.8 | 0.993
303.15 K, x2 = 0 | 856.95 | 1316.8 | 0.621
303.15 K, x2 = 0.074 | 864.41 | 1320.5 | 0.633
303.15 K, x2 = 0.181 | 875.58 | 1326.7 | 0.65
303.15 K, x2 = 0.334 | 892.57 | 1336.1 | 0.677
303.15 K, x2 = 0.4982 | 912.31 | 1347.1 | 0.706
303.15 K, x2 = 0.628 | 929.13 | 1356.2 | 0.758
303.15 K, x2 = 0.7512 | 946.19 | 1365.4 | 0.792
303.15 K, x2 = 0.814 | 955.34 | 1370.5 | 0.837
303.15 K, x2 = 0.875 | 964.55 | 1375.6 | 0.87
303.15 K, x2 = 0.94 | 974.7 | 1382.8 | 0.912

Source: the NIST ThermoML archive (doi:10.1021/je060170c)
